Laboratory results from patent publication US5534496A, “Methods and compositions to enhance epithelial drug transport” (University of Southern California, priority 1994, dated 1996).
Entries after “also recorded” stand apart in the source; their conditions may differ. Where a SMILES comes first, the peptide text is derived from it. [ ]: non-standard residue; d: D form. The star is where a group is joined. X1 = O=C(OCc1ccc(/N=N/c2ccccc2)cc1)*

Columns and labels:
bacterial collagenase = test: Hydrolysis by bacterial collagenase; conditions: 0.04 mg/ml bacterial collagenase
[1] = Degradation in intestinal homogenates; type: in vitro ADME; conditions: 0.5 mM; various intestinal homogenates
Description: Key: .quadrature., Pz-Pro-Leu; , Pro-Leu.

Caco2 monolayers = test: Penetration of peptides across Caco2 monolayers; conditions: 5 mM
[2] = test system: isolated segments of duodenum, jejunum, ileum, ascending colon, descending colon, and rectum; test: Penetration across isolated intestinal segments in modified Ussing chamber; type: in vitro ADME, albino rabbit; conditions: for penetration relative to atenolol, timolol and propranolol: all intestinal segments, all at 3 mM; for penetration: descending colon
Procedure: The penetration of Pz-peptide across the isolated segments of duodenum, jejunum, ileum, ascending colon, descending colon, and rectum of the albino rabbit was evaluated in the modified Ussing chamber. Solution of Pz-peptide at concentrations of 1, 3, and 5 mM were prepared in 5% hydroxypropyl β-cyclodextrin, which was found not to affect either collagenase activity or integrity of the intestinal segments. Periodically up until 240 min, a 50 μl aliquot was collected from the serosal side and injected directly into the HPLC. The apparent permeability coefficient Papp, was calculated using methods well known to one skilled in the art. Papp is defined as the flux of any solute transported across a given membrane per unit area normalized to the concentration applied (see pages 72-73 from the text by W. D. Stein entitled, "Transport and Diffusion A Cross Cell Membranes").

[3] = test system: collagenase-like activity; test: Collagenase activity (Pz-peptide hydrolysis) in homogenates and subcellular fractions of gastrointestinal mucosa; type: in vitro ADME; conditions: albino rabbit intestinal segments
Procedure: Collagenase activity in homogenates and subcellular fractions of the gastrointestinal mucosa of the albino rabbit was determined by incubating 30 μl a homogenate or subcellular fraction with 20 μl of a Pz-peptide solution in 11% ethanol for up to 60 min. The subcellular fractions were the cytosolic and membrane fractions, and the concentrations of Pz-peptide ranged from 0.1 to 2 mM. The reaction was stopped by adding 225 μl of acetonitrile to the incubation mixture. Following centrifugation to remove precipitated proteins, an aliquot of the supernatant was injected into the HPLC for assay of the intact peptide and its hydrolytic product, Pz-L-Pro-L-Leu. Collagenase activity was determined from the initial slope of a plot of product concentration vs. time.
Using the procedure described in section A above, collagenase actively for the Pz-peptide was found in both tissue homogenate and subcellular fractions of the intestinal segments of the albino rabbit. Referring to FIG. 1, collagenase-like activity was highest in the descending colon and lowest in the jejunum, there being a 7-fold difference in activity at both high and low substrate concentration. […] About 60% of collagenase-like activity was in the cytosol.

[4] = test system: human colon carcinoma cell monolayer (Caco2); test: Transepithelial electrical resistance (TEER) of Caco2 monolayers; conditions: 3 mM; prolonged exposure
Procedure: A 500 ohms·cm^2 transepithelial electrical resistance, TEER, was used for the study.
The experiment was initiated by replacing the mucosal solution with sample solution. The viability of the cell monolayers was measured by TEER before and after exposure to the peptide solution. Five paracellular markers with different molecular radii were used to determine the extent of enhancement.

[5] = from Betageri and Rogers (1987); cited from earlier work

In the case of CC(C)C[C@H](NC(=O)[C@@H]1CCCN1)C(=O)N[C@@H](CCC(=O)O)C(=O)N1CCC[C@H]1C(=O)N[C@H](CCCNC(=N)N)C(=O)O [PLEP^d R, Pro-Leu-Glu-Pro-^d Arg] (H-PLEP[dR]-OH), the “susceptibility to collagenase action” value (bacterial collagenase) is reported as “not susceptible to collagenase action”.

For CC(C)C[C@H](NC(=O)[C@@H]1CCCN1)C(=O)O [Pro-Leu, reference compound] (H-Pro-Leu-OH), the enzymatic degradation [1] was “degraded to various extent” and the “penetration relative to Pz-Pro-Leu” value (Caco2 monolayers) was “about 10 times lower”.

With CC(C)C[C@H](NC(=O)[C@@H]1CCCN1C(=O)OCc1ccc(/N=N/c2ccccc2)cc1)C(=O)O [Pz-Pro-Leu, Pz-L-Pro-L-Leu] the “concentration dependence of penetration” value ([2]; all intestinal segments studied) was “independent of concentrations”, the “penetration relative to atenolol, timolol and propranolol” value [2] was “penetrated equally well or even better” and the penetration [2] was “penetrated very well”. The enzymatic degradation [1] was “resistant to enzymatic degradation”.

In the case of CC(C)C[C@H](NC(=O)[C@@H]1CCCN1C(=O)OCc1ccc(/N=N/c2ccccc2)cc1)C(=O)NCC(=O)N1CCC[C@H]1C(=O)N[C@H](CCCNC(=N)N)C(=O)O [Pz-peptide, Pz-Pro-Leu-Gly-Pro-D-Arg] (X1-PLGP[dR]-OH), the “rank order of collagenase-like activity (Pz-peptide hydrolysis) in intestinal segments” value [3] is reported as “descending colon>ascending colon>rectum>ileum>duodenum>jejunum”, the “concentration dependence of penetration” value ([2]; 1-5 mM, lower G.I. regions) is reported as “increased with increasing peptide concentrations” and the “concentration dependence of transport” value ([2]; 1-5 mM, upper G.I. segments) is reported as “independent of concentrations”. For the same compound, the “permeability, lower intestine versus upper intestine” value ([2]; albino rabbit intestinal segments) was “lower intestine was more permeable”, the “penetration relative to atenolol, timolol and propranolol” value [2] was “penetrated equally well or even better” and the penetration [2] was “penetrated very well; also recorded: penetrated the second best”. The “rank order of permeability coefficient” value ([2]; lower intestine) was “rectum>descending colon>ascending colon” and the “permeability of duodenum, jejunum and ileum” value ([2]; upper intestine) was “equally permeable”.

With C=C1[C@@H](C)[C@H]2[C@H](Cc3ccccc3)NC(=O)[C@]23OC(=O)/C=C/[C@H](O)CCC[C@@H](C)C/C=C/[C@H]3[C@@H]1O [cytochalasin B] the “recovery of TEER” value [4] was “only partial recovery”.

In the case of CC(C)NCC(O)COc1cccc2ccccc12 (stereo not drawn) [propranolol], the “distribution coefficient (DC)” value [5] is given as 1640.

For CC(C)(C)NC[C@H](O)COc1nsnc1N1CCOCC1 [timolol], the “distribution coefficient (DC)” value [5] is listed as 82.
